Data reported in patent publication US12559474B2, “Triazine derivatives having virus replication inhibitory activity and pharmaceutical composition comprising the same” (priority 2021, dated 2026).
Like-named read-outs stand apart in the source and are kept apart here.

Key:
SARS-CoV-2 = assay: microbe, parasite or virus in culture; type: cell-based; settings: Severe acute respiratory syndrome coronavirus 2, VeroE6/TMPRSS2, 72 h, 50% SARS-CoV-2 infected cell death inhibitory concentration, VeroE6/TMPRSS2 cells, 3 days culture
SARS-CoV-2 3CL protease = SARS-CoV-2 3CL protease (Severe acute respiratory syndrome coronavirus 2, UniProt P0DTD1); assay: biochemical; settings: 50% SARS-CoV-2 3CL protease inhibitory concentration, read-out: IC50

Row | SMILES | EC50 (SARS-CoV-2; class symbols) | IC50 (SARS-CoV-2 3CL protease; given as class symbols) | EC50 (SARS-CoV-2; CellTiter-Glo 2.0) | IC50 (SARS-CoV-2 3CL protease; RapidFire MS)
1 | CNc1cncc(-n2c(=O)nc(Nc3cc4cn(C)nc4cc3Cl)n(Cc3cc(F)c(F)c(F)c3)c2=O)c1 [II-0602] | < 1000 nM | < 100 nM | – | –
2 | Cc1cncc(-n2c(=O)nc(Nc3cc4cn(C)nc4cc3Cl)n(Cc3cc(F)c(F)c(F)c3F)c2=O)c1 [II-0164] | – | – | 195 nM | 9 nM
3 | Cn1cnc(Cn2c(=O)nc(Nc3cc4cn(C)nc4cc3F)n(Cc3cc(F)c(F)cc3F)c2=O)n1 [II-0519] | 1000 to 10000 nM | < 100 nM | – | –
4 | COc1cc(Cl)c(Nc2nc(=O)n(Cc3ccc[nH]c3=O)c(=O)n2Cc2cc(F)c(F)c(F)c2)c(Cl)c1 [Compound I-0437] | 1000 to 10000 nM | < 100 nM | – | –
5 | Cc1cncc(-n2c(=O)nc(Nc3cc4cn(C)nc4cc3Cl)n(Cc3cc(C#N)cnc3C)c2=O)c1 [II-0537] | 1000 to 10000 nM | < 100 nM | – | –
6 | COc1ccc(Nc2nc(=O)n(Cc3ccc[nH]c3=O)c(=O)n2Cc2cc(F)c(F)c(F)c2)c(Br)c1 [Compound I-0166] | < 1000 nM | < 100 nM | – | –
7 | Cc1cncc(-n2c(=O)nc(Nc3cc4cn(C)nc4cc3Cl)n(Cc3cc(Cl)cc(Br)c3)c2=O)c1 [II-0215] | 1000 to 10000 nM | < 100 nM | – | –
8 | Cc1cncc(-n2c(=O)nc(Nc3cc4cn(C)nc4cc3Cl)n(Cc3cc(F)c(F)cc3C)c2=O)c1 [II-0403] | < 1000 nM | < 100 nM | – | –
9 | COC(=O)Nc1nc2cc(Cl)c(Nc3nc(=O)n(-c4cncc(C)c4)c(=O)n3Cc3ccc(F)c(C#N)c3)cc2s1 [II-0074] | – | – | 248 nM | 3.6 nM
10 | O=c1nc(Nc2cc3c(cc2Cl)nc2n3CCN2)n(Cc2cc(Cl)c(F)cc2F)c(=O)n1-c1cncc(Cl)c1 [II-0349] | 1000 to 10000 nM | < 100 nM | – | –
11 | O=c1nc(Nc2ccc3nn(CC(F)F)cc3c2)n(Cc2cc(F)c(F)c(F)c2)c(=O)n1-c1cncc2ccccc12 [Compound I-0472] | < 1000 nM | < 100 nM | – | –
12 | Cc1cncc(-n2c(=O)nc(Nc3cc4cn(C)nc4cc3Cl)n(Cc3cc(C#N)ccc3C(F)(F)F)c2=O)c1 [II-0076] | < 1000 nM | < 100 nM | – | –
13 | Cc1cncc(-n2c(=O)nc(Nc3cc4cn(CC5CC5)nc4cc3Cl)n(Cc3ccc(F)c(C#N)c3)c2=O)c1 [II-0345] | < 1000 nM | < 100 nM | – | –
14 | Cc1cncc(-n2c(=O)nc(Nc3cc4cn(C)nc4cc3Cl)n(Cc3cc(F)c(F)cc3OCC(F)(F)F)c2=O)c1 [II-0435] | 1000 to 10000 nM | < 100 nM | – | –
15 | Cc1cncc(-n2c(=O)nc(Nc3cc4sc(NC5CC5)nc4cc3Cl)n(Cc3ccc(F)c(C#N)c3)c2=O)c1 [II-0303] | < 1000 nM | < 100 nM | – | –
16 | Cn1cc2cc(Nc3nc(=O)n(Cc4nccc(N)n4)c(=O)n3Cc3cc(F)c(F)cc3F)c(Cl)cc2n1 [II-0246] | 1000 to 10000 nM | < 100 nM | – | –
17 | Cc1cncc(-n2c(=O)nc(Nc3cc4cn(C)nc4cc3Cl)n(Cc3ccc(F)c(F)c3)c2=O)c1 [II-0028] | < 1000 nM | < 100 nM | – | –
18 | COc1ccc(Nc2nc(=O)n(Cc3ccc[nH]c3=O)c(=O)n2Cc2cc(F)c(F)c(F)c2)c(OC)c1 [Compound I-0042] | 1000 to 10000 nM | < 100 nM | – | –
19 | CCNc1nc2cc(Cl)c(Nc3nc(=O)n(Cc4ncn(C)n4)c(=O)n3Cc3cc(F)c(F)cc3F)cc2s1 [II-0339] | < 1000 nM | < 100 nM | – | –

Row | SMILES | EC50 (SARS-CoV-2; class symbols) | IC50 (SARS-CoV-2 3CL protease; given as class symbols) | EC50 (SARS-CoV-2; CellTiter-Glo 2.0) | IC50 (SARS-CoV-2 3CL protease; RapidFire MS)
20 | COc1ccc(Nc2nc(=O)n(Cc3ccc[nH]c3=O)c(=O)n2Cc2ccc(Cl)s2)cc1 [Compound I-0321] | < 1000 nM | 1000 to 10000 nM | – | 2100 nM
21 | Cc1cncc(-n2c(=O)nc(Nc3ccc4c(c3)CCO4)n(Cc3ccc(F)c(C#N)c3)c2=O)c1 [Compound I-0354] | – | – | 107 nM | 5 nM
22 | COC(=O)Nc1nc2cc(Cl)c(Nc3nc(=O)n(Cc4ncn(C)n4)c(=O)n3Cc3cc(F)c(F)cc3F)cc2s1 [II-0075] | < 1000 nM | < 100 nM | – | –
23 | Cn1cnc(Cn2c(=O)cc(Nc3cc4cn(C(F)F)nc4cc3Cl)n(Cc3ccc(F)c(C#N)c3)c2=O)n1 [II-0433] | < 1000 nM | < 100 nM | – | –
24 | Cc1cncc(-n2c(=O)nc(Nc3cc4cn(C)nc4cc3Cl)n(Cc3cc(F)c(F)cc3Cl)c2=O)c1 [II-0402] | < 1000 nM | < 100 nM | – | –
25 | Cn1cnc(Cn2c(=O)nc(Nc3cc4cn(C5CCOCC5)nc4cc3Cl)n(Cc3cc(F)c(F)cc3F)c2=O)n1 [II-0102] | 1000 to 10000 nM | < 100 nM | – | –
26 | CNc1nc2cc(Cl)c(Nc3nc(=O)n(-c4cncc(C)c4)c(=O)n3Cc3cc(C#N)ccc3C)cc2s1 [II-0395] | < 1000 nM | < 100 nM | – | –
27 | Cc1cncc(-n2c(=O)nc(Nc3cc4cn(C)nc4cc3Cl)n(Cc3cc(Cl)ccc3C(F)(F)F)c2=O)c1 [II-0077] | < 1000 nM | < 100 nM | – | –
28 | Cn1cnc(Cn2c(=O)nc(Nc3cc4cn(C)nc4cc3Cl)n(Cc3cc(F)cc(F)c3F)c2=O)n1 [II-0189] | 1000 to 10000 nM | < 100 nM | – | –
29 | Cc1cncc(-n2c(=O)nc(Nc3cc4c(cc3Cl)nc(N(C)C)n4C)n(Cc3cc(F)c(F)c(F)c3)c2=O)c1 [II-0478] | 1000 to 10000 nM | < 100 nM | – | –
30 | Cn1cnc(Cn2c(=O)nc(Nc3cc4cn(C)nc4cc3Cl)n(Cc3cc(F)cc(F)c3)c2=O)n1 [II-0207] | 1000 to 10000 nM | < 100 nM | – | –
31 | CCn1cc2cc(Nc3nc(=O)n(-c4cncc(Cl)c4)c(=O)n3Cc3cc(C#N)c(F)cc3C)ccc2n1 [II-0559] | – | – | 246 nM | 6.4 nM
32 | COc1ccc(Nc2nc(=O)n(Cc3cc(Cl)c[nH]c3=O)c(=O)n2Cc2cc(F)c(F)c(F)c2)cc1 [Compound I-0069] | 1000 to 10000 nM | < 100 nM | – | –
33 | Cc1nc2cc(Cl)c(Nc3nc(=O)n(Cc4ccc[nH]c4=O)c(=O)n3Cc3cc(F)c(F)c(F)c3)cc2o1 [Compound I-0459] | 1000 to 10000 nM | < 100 nM | – | –
34 | Cc1nc2cc(Br)c(Nc3nc(=O)n(Cc4ncn(C)n4)c(=O)n3Cc3cc(F)c(F)cc3F)cc2s1 [II-0417] | 1000 to 10000 nM | < 100 nM | – | –
35 | Cc1cncc(-n2c(=O)nc(Nc3cc4sc(NCC(F)F)nc4cc3Cl)n(Cc3cc(F)c(F)c(C#N)c3)c2=O)c1 [II-0498] | 1000 to 10000 nM | < 100 nM | – | –
36 | Cn1cnc(Cn2c(=O)nc(Nc3cc4cn(C)nc4cc3Cl)n(Cc3ccc(F)cc3Br)c2=O)n1 [II-0218] | 1000 to 10000 nM | < 100 nM | – | –
37 | COc1ccc(Nc2nc(=O)n(Cc3cc4cc(OC)ccc4[nH]c3=O)c(=O)n2Cc2cc(F)c(F)c(F)c2)cc1 [Compound I-0100] | 1000 to 10000 nM | < 100 nM | – | –
38 | Cn1cnc(Cn2c(=O)nc(Nc3cc4cn(C)nc4cc3Cl)n(Cc3cc(Cl)c(F)cc3Cl)c2=O)n1 [II-0363] | < 1000 nM | < 100 nM | – | –

Row | SMILES | EC50 (SARS-CoV-2; class symbols) | IC50 (SARS-CoV-2 3CL protease; given as class symbols) | EC50 (SARS-CoV-2; CellTiter-Glo 2.0) | IC50 (SARS-CoV-2 3CL protease; RapidFire MS)
39 | Cc1cncc(-n2c(=O)nc(Nc3cc4cn(C)nc4cc3F)n(Cc3cc(F)c(F)cc3F)c2=O)c1 [II-0528] | < 1000 nM | < 100 nM | – | –
40 | CCn1cc2cc(Nc3nc(=O)n(-c4cncc(C)c4)c(=O)n3Cc3cc(C#N)c(F)cc3C)c(Cl)cc2n1 [II-0233] | – | – | 65 nM | 1.5 nM
41 | N#CCn1cc2cc(Nc3nc(=O)n(Cc4ccc[nH]c4=O)c(=O)n3Cc3cc(F)c(F)c(F)c3)c(Cl)cc2n1 [II-0507] | 1000 to 10000 nM | < 100 nM | – | –
42 | O=c1[nH]cccc1Cn1c(=O)nc(Nc2cc3cn(C4COC4)nc3cc2Cl)n(Cc2cc(F)c(F)c(F)c2)c1=O [Compound I-0382] | 1000 to 10000 nM | < 100 nM | – | –
43 | CNc1nc2ccc(Nc3nc(=O)n(-c4cncc(C)c4)c(=O)n3Cc3cc(C#N)ccc3Cl)cc2s1 [II-0497] | < 1000 nM | < 100 nM | – | –
44 | Cc1cncc(-n2c(=O)nc(Nc3cc4cn(C)nc4cc3Cl)n(Cc3cc(F)cc(F)c3)c2=O)c1 [II-0201] | < 1000 nM | < 100 nM | – | –
45 | Cn1cnc(Cn2c(=O)nc(Nc3cc4cn(C(F)F)nc4cc3Cl)n(Cc3cc(F)c(F)c(F)c3)c2=O)n1 [Compound I-0434] | 1000 to 10000 nM | < 100 nM | – | –
46 | COc1ccc(Nc2nc(=O)n(Cc3ccc[nH]c3=O)c(=O)n2CC2CCCCC2)cc1 [Compound I-0134] | < 1000 nM | 1000 to 10000 nM | – | 4000 nM
47 | CCc1cc(F)c(F)cc1Cn1c(Nc2cc3cn(C)nc3cc2Cl)nc(=O)n(-c2cncc(C)c2)c1=O [II-0068] | < 1000 nM | < 100 nM | – | –
48 | Cc1cncc(-n2c(=O)nc(NC3CCC3)n(Cc3cc(F)c(F)c(F)c3)c2=O)c1 [II-0227] | < 1000 nM | – | – | 630 nM
49 | CCNc1nc2cc(Cl)c(Nc3nc(=O)n(Cc4ccc[nH]c4=O)c(=O)n3Cc3cc(F)c(F)c(F)c3)cc2s1 [Compound I-0468] | 1000 to 10000 nM | < 100 nM | – | –
50 | Cn1cnc(Cn2c(=O)nc(Nc3cc4sc(N)nc4cc3Cl)n(Cc3cc(Cl)c(F)cc3F)c2=O)n1 [II-0529] | < 1000 nM | < 100 nM | – | –
51 | Cc1cncc(-n2c(=O)nc(Nc3cc4cn(C)nc4cc3Cl)n(Cc3cc(Cl)c(F)cn3)c2=O)c1 [II-0541] | < 1000 nM | < 100 nM | – | –
52 | COc1ccc(Nc2nc(=O)n(Cc3cc(-c4ncco4)c[nH]c3=O)c(=O)n2Cc2cc(F)c(F)c(F)c2)cc1 [Compound I-0260] | 1000 to 10000 nM | < 100 nM | – | –
53 | O=C(O)c1ccc(Nc2nc(=O)n(Cc3ccc[nH]c3=O)c(=O)n2Cc2cc(F)c(F)c(F)c2)cc1 [Compound I-0035] | < 1000 nM | 1000 to 10000 nM | – | 3500 nM
54 | COc1ccc(Nc2nc(=O)n(Cc3ccc[nH]c3=O)c(=O)n2Cc2ccc(F)c(Cl)c2)cc1 [Compound I-0252] | 1000 to 10000 nM | < 100 nM | – | –
55 | CNc1cncc(-n2c(=O)nc(Nc3cc4cn(C)nc4cc3Cl)n(Cc3cc(F)c(F)cc3F)c2=O)c1 [II-0600] | < 1000 nM | < 100 nM | – | –
56 | C#Cc1cncc(-n2c(=O)nc(Nc3ccc(OC)cc3)n(Cc3cc(F)c(F)c(F)c3)c2=O)c1 [II-0604] | – | – | 9760 nM | 470 nM
57 | Cc1cncc(-n2c(=O)nc(Nc3ccc4nn(C(C)C)cc4c3)n(Cc3ccc(F)c(C#N)c3)c2=O)c1 [II-0038] | 1000 to 10000 nM | < 100 nM | – | –
